Experimental data from the supplement of paper PMC4862054.

Tests used:
Experiment in all cases: normalised viability (% of control), CellTiter-Blue; higher = more viable cells (about 100 = DMSO control)
BT-474 [1] = conditions: 100 nM; incubation time: 72 h
Protocol: (§1)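 DSRT, CellTiter-Blue viability, 72 h incubation. Signal is normalised to DMSO and benzethonium chloride controls. Value is the normalised response at dose 3.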

BT-549 [2] = conditions: 100 nM; incubation time: 72 h
Protocol: as §1

CAL-120 [3] = conditions: 100 nM; incubation time: 72 h
Protocol: as §1

CAL-148 = conditions: 10 nM; incubation time: 72 h
Protocol: as §1

CAL-51 [4] = conditions: 10 nM; incubation time: 72 h
Protocol: as §1

CAL-85-1 [5] = conditions: 10 nM; incubation time: 72 h
Protocol: as §1

DU-4475 [6] = conditions: 10 nM; incubation time: 72 h
Protocol: as §1

HCC1143 [7] = conditions: 100 nM; incubation time: 72 h
Protocol: as §1

HCC1599 = conditions: 100 nM; incubation time: 72 h
Protocol: as §1

HCC1937 = conditions: 100 nM; incubation time: 72 h
Protocol: as §1

HDQ-P1 [8] = conditions: 10 nM; incubation time: 72 h
Protocol: as §1

MDA-MB-231 = conditions: 100 nM; incubation time: 72 h
Protocol: as §1

MDA-MB-436 = conditions: 100 nM; incubation time: 72 h
Protocol: as §1

MDA-MB-453 [9] = conditions: 10 nM; incubation time: 72 h
Protocol: as §1

MDA-MB-468 [10] = conditions: 100 nM; incubation time: 72 h
Protocol: as §1

SK-BR-3 [11] = conditions: 100 nM; incubation time: 72 h
Protocol: as §1

BT-474 [12] = conditions: incubation time: 72 h
In short: (§2)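 Each value is normalised viability at a single listed concentration of the series. Breast cancer cell lines in 384-well plates were incubated 72 h with compound and read by CellTiter-Blue fluorescence at 560/590 nm, with vehicle set to 100 and a positive kill control to 0 on every plate.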

BT-549 [13] = conditions: incubation time: 72 h
In short: as §2

CAL-120 [14] = conditions: incubation time: 72 h
In short: as §2

CAL-51 [15] = conditions: incubation time: 72 h
In short: as §2

CAL-85-1 [16] = conditions: incubation time: 72 h
In short: as §2

DU-4475 [17] = conditions: incubation time: 72 h
In short: as §2

HCC1143 [18] = conditions: incubation time: 72 h
In short: as §2

HDQ-P1 [19] = conditions: incubation time: 72 h
In short: as §2

Hs578T = conditions: incubation time: 72 h
In short: as §2

MDA-MB-453 [20] = conditions: incubation time: 72 h
In short: as §2

MDA-MB-468 [21] = conditions: incubation time: 72 h
In short: as §2

MFM-223 = conditions: incubation time: 72 h
In short: as §2

SK-BR-3 [22] = conditions: incubation time: 72 h
In short: as §2

CN1CCC(COc2cnc(-c3cccc(Cn4nc(-c5cccc(C#N)c5)ccc4=O)c3)nc2)CC1
Conditions	normalised viability [%]
BT-474 [1]	102
BT-549 [2]	81.5
CAL-51 [4]	92.9
CAL-85-1 [5]	94.4
CAL-120 [3]	108
CAL-148	79.1
DU-4475 [6]	98.3
HCC1143 [7]	109
HCC1599	116
HCC1937	94
HDQ-P1 [8]	86.3
MDA-MB-231	83.4
MDA-MB-436	92.3
MDA-MB-453 [9]	89.3
MDA-MB-468 [10]	95
SK-BR-3 [11]	68.9

normalised viability [%]
Conditions	3 nM	10 nM	30 nM	100 nM	1000 nM	10000 nM
BT-474 [12]	–	93.6	–	–	105	9.72
BT-549 [13]	–	98.9	–	–	90	5.83
CAL-51 [15]	97.3	–	98	87.6	–	–
CAL-85-1 [16]	110	–	96.5	121	–	–
CAL-120 [14]	–	97.3	–	–	116	11.8
DU-4475 [17]	94.1	–	89.7	99.2	–	–
HCC1143 [18]	–	116	–	–	103	114
HDQ-P1 [19]	82	–	91.8	70.5	–	–
Hs578T	–	105	–	–	91	59.8
MDA-MB-453 [20]	84.5	–	91.2	93.8	–	–
MDA-MB-468 [21]	–	92.8	–	–	92.9	5.99
MFM-223	–	108	–	–	119	22.5
SK-BR-3 [22]	–	93.1	–	–	89.2	2.76

CN(C)C/C=C/C(=O)Nc1cc2c(Nc3ccc(F)c(Cl)c3)ncnc2cc1O[C@H]1CCOC1 [Afatinib]
Conditions	normalised viability [%]
BT-474 [1]	34.8
BT-549 [2]	104
CAL-51 [4]	107
CAL-85-1 [5]	84.7
CAL-120 [3]	71.8
CAL-148	79.9
DU-4475 [6]	95.1
HCC1143 [7]	71
HCC1599	84.6
HCC1937	93.4
HDQ-P1 [8]	94.3
MDA-MB-231	90.3
MDA-MB-436	84.7
MDA-MB-453 [9]	81.4
MDA-MB-468 [10]	60.9
SK-BR-3 [11]	15.2

normalised viability [%]
Conditions	3 nM	10 nM	30 nM	100 nM	1000 nM	10000 nM
BT-474 [12]	–	72.1	–	–	33.8	16
BT-549 [13]	–	87.1	–	–	92.9	11.7
CAL-51 [15]	114	–	99.8	97.7	–	–
CAL-85-1 [16]	83.2	–	57.4	54.2	–	–
CAL-120 [14]	–	71.8	–	–	66.1	13.2
DU-4475 [17]	95.1	–	83.2	85.8	–	–
HCC1143 [18]	–	66	–	–	70	42.9
HDQ-P1 [19]	92.5	–	76.9	77.1	–	–
Hs578T	–	98	–	–	95.7	14.4
MDA-MB-453 [20]	104	–	67	46.6	–	–
MDA-MB-468 [21]	–	99.1	–	–	56.9	11.5
MFM-223	–	88.7	–	–	83.4	25.1
SK-BR-3 [22]	–	52.1	–	–	19.3	12.3

CN1CC[C@H](c2c(O)cc(O)c3c(=O)cc(-c4ccccc4Cl)oc23)[C@H](O)C1 [Alvocidib]
Conditions	normalised viability [%]
BT-474 [1]	96.4
BT-549 [2]	95.6
CAL-51 [4]	103
CAL-85-1 [5]	93.8
CAL-120 [3]	68.2
CAL-148	85.4
DU-4475 [6]	93
HCC1143 [7]	69.7
HCC1599	82.4
HCC1937	69.4
HDQ-P1 [8]	106
MDA-MB-231	82.9
MDA-MB-436	99.7
MDA-MB-453 [9]	98.1
MDA-MB-468 [10]	91.5
SK-BR-3 [11]	46.9

normalised viability [%]
Conditions	3 nM	10 nM	30 nM	100 nM	1000 nM	10000 nM
BT-474 [12]	–	102	–	–	23	26.6
BT-549 [13]	–	92	–	–	9	7.78
CAL-51 [15]	109	–	92.5	78.1	–	–
CAL-85-1 [16]	82.7	–	79.9	76.6	–	–
CAL-120 [14]	–	67.7	–	–	10.7	11.1
DU-4475 [17]	90.7	–	79.2	78.6	–	–
HCC1143 [18]	–	76.5	–	–	14.1	15.1
HDQ-P1 [19]	88.6	–	87.6	84.2	–	–
Hs578T	–	90.8	–	–	4.18	2.76
MDA-MB-453 [20]	104	–	91.4	73	–	–
MDA-MB-468 [21]	–	108	–	–	10.4	5.45
MFM-223	–	87.3	–	–	8.79	8.79
SK-BR-3 [22]	–	88.5	–	–	4.29	5.99
